Laboratory results: US10556926B2, “Synthetic artificial peptides with antimicrobial effect” (priority 2014, dated 2020)
Converted amounts (≈) assume the structure as drawn. No end group written: not given here.

Experiments:
E. coli DH5α = conditions: MHB, 18 hours at 37° C.; mean of four test series
Outline: (§1)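 Broth microdilution MIC per CLSI/EUCAST, adapted for cationic peptides, in Mueller-Hinton broth. Peptides at final 64 to 0.25 μM (2-fold series) with 5·10^4 bacteria/ml, 18 h at 37° C with shaking; growth read as absorbance at 600 nm.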

Staphylococcus xylosus = conditions: MHB, 18 hours at 37° C.; mean of four test series
Outline: as §1

E. coli ML-35p = assay: Kinetics of permeabilization of the inner bacteria membrane (ONPG); format: cell-based, Escherichia coli
Method: The ability of the antimicrobial peptides for the respective permeabilization of the outer and inner bacteria membrane was tested by way of example on E. coli ML-35p (made available by Dr. R. E. Lehrer, Center for Health Sciences, Los Angeles, Calif., USA). The peptides were incubated in serial dilution with E. coli ML-35p and the time-dependent release of cell-internal components was measured in a slightly modified protocol according to Ericsson et al. (2002). For this purpose, the bacteria were cultured in Luria-Bertani (LB) medium with 100 μg/ml ampicillin (Fluka, Taufkirchen, Germany) until reaching an optical density of 0.4 at 600 nm wavelength. Then, the cells were washed three times by centrifugation at 4000 g for 1 min and subsequent up-take in 10 mM HEPES buffer pH 7.2. Finally, the cells were diluted to an optical density of 0.3 at 600 nm wavelength. To measure the permeabilization of the outer membrane, nitrocefin (Merck, Darmstadt, Germany) was diluted in HEPES buffer to a concentration of 60 μg/ml. The antimicrobial peptides were diluted in HEPES buffer to an end concentration of 12 μM, 24 μM, 48 μM and 96 μM end concentration. In the next step, 50 μl of nitrocefin were admixed with 50 μl of antimicrobial peptide and 50 μl of bacteria suspension such that an end concentration of 20 μg/ml of nitrocefin, 4 μM to 32 μM of antimicrobial peptide and bacteria with an optical density of 0.1 to 600 nm were present. The samples were mixed and the absorption at 500 nm wavelength was measured directly over a period of at least 90 min at 37° C. with regular shaking in a FLUOstar omega Microplate Reader (BMG Labtech, Ortenberg, Germany). The investigation of the permeabilization of the inner membrane was carried out in the same way except that instead of the nitrocefin accordingly 0-nitrophenyl-beta-D-galactoside (ONPG, Sigma-Aldrich) in an end concentration of 100 μg/ml was used and the absorption change was determined at a wavelength of 420 nm. The control used was samples without antimicrobial peptide, the positive control used for the membrane permeabilization was polymyxin B (Sigma-Aldrich) in an end concentration of 5 μM. For the data evaluation, firstly the measurement values of the corresponding negative controls were deducted from the measurement values of the samples, and the difference was then divided by the corresponding measurement values of the permeabilization control. Then, a graphical evaluation was carried out, the calculated values being plotted against the peptide concentration and being fitted with the help of the Origin Pro 8.1 G Software (OriginLab) according to a sigmoidal model. As representative examples, FIGS. 4 and 5 show the graphical evaluation for the kinetic investigation of the permeabilization of the outer E. coli bacteria membrane for the peptides N4 (FIG. 4) and O1 (FIG. 5).
As comparison parameter between the peptides, the times were ascertained from this at which 50% of the final signal level was reached. For this purpose, the equation with the percentage membrane permeabilization y, the time x in minutes, the lower plateau A1, the upper plateau A2, the point of inflection Log X0 and the Hill incline p
[formula] was used. The calculation of the parameters A1, A2, Log X0 and p was performed by the program by reference to the compensating curve. Further resolution of equation 5.1 for the case y=50 then produced for x the desired time at which the half-maximum signal level was reached.

Row | Molecule | MIC E. coli (E. coli DH5α) [µM] | MIC S. xylosus (Staphylococcus xylosus) [µM] | Inner membrane, time to 50% of final signal (E. coli ML-35p; 4 μM peptide) [min] | Inner membrane, time to 50% of final signal (E. coli ML-35p; 8 μM peptide) [min] | Inner membrane, time to 50% of final signal (E. coli ML-35p; 16 μM peptide) [min] | Inner membrane, time to 50% of final signal (E. coli ML-35p; 32 μM peptide) [min]
1 | CC[C@H](C)[C@H](NC(=O)CN)C(=O)NCC(=O)N[C@@H](C)C(=O)N[C@H](C(=O)N[C@@H](CC(C)C)C(=O)N[C@@H](CCCCN)C(=O)N[C@H](C(=O)N[C@@H](CC(C)C)C(=O)N[C@H](C(=O)N[C@H](C(=O)NCC(=O)N[C@@H](CC(C)C)C(=O)N1CCC[C@H]1C(=O)N[C@@H](C)C(=O)N[C@@H](CC(C)C)C(=O)N[C@H](C(=O)N[C@@H](CO)C(=O)N[C@@H](Cc1c[nH]c2ccccc12)C(=O)N[C@H](C(=O)N[C@@H](CCCCN)C(=O)N[C@@H](CCCNC(=N)N)C(=O)N[C@@H](CCCCN)C(=O)N[C@@H](CCCNC(=N)N)C(=O)N[C@@H](CCC(N)=O)C(=O)N[C@@H](CCC(N)=O)C(N)=O)[C@@H](C)CC)[C@@H](C)CC)[C@@H](C)O)[C@@H](C)O)C(C)C)C(C)C [Melittin] | 8 (≈ 22.8 µg/mL) | 2 (≈ 5.69 µg/mL) | 18 | 12 | 9 | 6
2 | ILPWKWPWWPWRR [Indolicidin] | 4 | 32 | >90 | >90 | >90 | >90
3 | KILILIKRK-OH [N4] | 32 | 16 | >90 | >90 | >90 | >90
4 | KRKRKILILIKRK-OH [N1] | 8 | 0.5 | >90 | >90 | 38 | 32
5 | MPRRRRSSSRPVRRRRRPRVSRRRRRRGGRRR (Protamine) [protamine from salmon, grade IV, histone-free (Sigma-Aldrich)] | 8 | 0.5 | >90 | >90 | >90 | >90
